Measurements as given in PubChem BioAssay (NCI).
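Where inhibition never reached the appropriate level, the endpoint shown equals the highest concentration tested. Otherwise, values were interpolated linearly from a five-concentration, 48-hour dose response in 96-well plates. The concentration for 50% growth inhibition is given as GI50. TGI denotes the concentration required for complete inhibition of growth.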

How the values were obtained:
Experiment in all cases: growth of human tumour cells (NCI), 48 h
A498 renal = test system: A498 renal
A549 NSCLC = test system: A549 NSCLC
EKVX NSCLC = test system: EKVX NSCLC
MOLT-4 leukemia = test system: MOLT-4 leukemia
NCI-H23 lung = test system: NCI-H23 lung
OVCAR-8 ovarian = test system: OVCAR-8 ovarian
PC-3 prostate = test system: PC-3 prostate

| Compound | GI50 (A498 renal) | TGI (A498 renal) | GI50 (A549 NSCLC) | TGI (A549 NSCLC) | GI50 (EKVX NSCLC) | TGI (EKVX NSCLC) | GI50 (MOLT-4 leukemia) | TGI (MOLT-4 leukemia) | GI50 (NCI-H23 lung) | TGI (NCI-H23 lung) | GI50 (OVCAR-8 ovarian) | TGI (OVCAR-8 ovarian) | GI50 (PC-3 prostate) | TGI (PC-3 prostate) |
| --- | --- | --- | --- | --- | --- | --- | --- | --- | --- | --- | --- | --- | --- | --- |
| COc1ccc2c(C(=O)NCCCCCC(=O)O)cc3cc4c(cc3c2c1)OCO4 | > 100 µM | > 100 µM | > 100 µM | > 100 µM | > 100 µM | > 100 µM | > 100 µM | > 100 µM | > 100 µM | > 100 µM | > 100 µM | > 100 µM | > 100 µM | > 100 µM |
| O=C1/C=C/[C@@H](O)[C@@H]2C[C@@H](O)C[C@H]2/C=C/CCCCO1 | 0.166 µM | 1.92 µM | 0.422 µM | > 100 µM | 0.519 µM | > 21.4 µM | 1.4 µM | – | 0.488 µM | 63.1 µM | 0.516 µM | > 100 µM | 0.417 µM | > 100 µM |
| CN(Cc1cccc(Cl)c1)c1ccc(CO)c(Cl)c1 | 0.041 µM | 0.169 µM | 5.19 µM | 23.9 µM | 18.4 µM | 52.1 µM | 20 µM | 56.6 µM | 11.5 µM | 46.1 µM | 15.8 µM | 53.8 µM | 18 µM | > 54.3 µM |
| Nc1c(C(=O)Nc2cccc3ccccc23)sc2nc3c(cc12)CCCCCC3 | 2.48 µM | 42.5 µM | 2.54 µM | > 50 µM | 2.9 µM | > 50 µM | 2.38 µM | > 50 µM | 1.97 µM | > 50 µM | 2 µM | > 50 µM | 1.79 µM | > 50 µM |
| c1ccc(Oc2cnc3ccccc3n2)cc1 | 14.7 µM | > 100 µM | > 100 µM | > 100 µM | 77.4 µM | > 100 µM | 36.3 µM | > 100 µM | > 100 µM | > 100 µM | > 100 µM | > 100 µM | > 100 µM | > 100 µM |
| CC(NC(=O)C1(N)CCCC1)C(=O)O (stereo not given) | – | > 100 µM | – | > 100 µM | – | > 100 µM | – | > 100 µM | – | > 100 µM | – | > 100 µM | – | > 100 µM |
| O=C1COCCN1c1ccc(NCc2cn(Cc3ccc(F)cc3)c3ccccc23)cc1 | 0.0203 µM | 0.0821 µM | 1.68 µM | > 100 µM | 10.8 µM | > 66.7 µM | 11.6 µM | > 68.9 µM | 2.64 µM | 32.1 µM | 4.3 µM | > 86.8 µM | 8.68 µM | 45.2 µM |
